The values that follow come from patent publication US20160264616A1, “THERAPEUTIC COMPOUNDS AND METHODS” (priority 2015, published 2016).

Assay [1] addresses T1, Gαo:RGS17 protein:protein interaction (Homo sapiens, UniProt Q9UGC6).
T1 construct: This is the same RGS17 construct used in the high throughput screening campaign that is fully active despite the N-terminal truncation; made in house; host or cells: BL21 (DE3) E. coli for Gαo
T1 sequence (Q9UGC6 84-200 limits assumed): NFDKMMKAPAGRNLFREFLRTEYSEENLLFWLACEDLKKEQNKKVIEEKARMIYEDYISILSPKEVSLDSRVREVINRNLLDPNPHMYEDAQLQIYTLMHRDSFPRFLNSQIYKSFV
As to the kind of experiment: AlphaScreen Gαo:RGS17 protein:protein interaction assay (HTS and dose-response). As to conditions: for inhibition of the interaction of RGS17 with Gαo: AlphaScreen dose-response, n=3 in triplicate; for inhibition at 100 µM: read-out: inhibition of the AlphaScreen assay. The format is binding. On the procedure:
The primary biochemical screen was designed to identify compounds that function as inhibitors of the Gαo:RGS17 ppi. This was accomplished by miniaturizing our previously published HTS paradigm in a 1536-well format (17). […] We interrogated the 2320 compound containing MicroSource […] Diversity library (Discovery Systems, Inc. Gaylordsville, Conn.) (FIG. 3).
In total, 2,320 compounds from the MicroSource […] chemical library were screened at a concentration of 40 μM. Two 1536-well plates containing 1,280 compounds and 128 wells of DMSO controls were used. RGS17-anti-GST and Gαo-biotin-streptavidin beads were prepared as previously described. In brief, 100 μg (20 μL) of beads were coupled to 20 ng (10 nM) of each binding partner (Gαo:RGS17) and incubated for 30 min on ice. Then, 4.5 μL of RGS17-anti-GST beads were added using a FlexDrop IV (PerkinElmer, Waltham, Mass.) and incubated for 10 min with compound while the Gαo-biotin-streptavidin beads were incubated with AMF. After incubation, 4.5 μL of the Gαo-biotin-streptavidin bead/protein mixture was added to compound containing wells and incubated on ice for 1.25 hours and read at room temperature using the EnVision plate reader with monochromators.
Experiments were carried out similarly to the high-throughput AlphaScreen assay except this was completed using Corning 384-well white flat bottom plates and the final total volume was 60 μL, with 20 µL of Gαo-biotin-streptavidin and RGS17-anti-GST beads at a final concentration of 10 nM. Then, 20 μL of compounds in a half log dilution series to yield a final range from 1 nM to 100 μM was added to RGS17-anti-GST beads and incubated for 10 min in the dark on ice. Next, 20 μL of Gαo-biotin-streptavidin beads were then added in the presence of AMF and GDP. Negative controls were determined in the absence of AMF and compound. Maximum binding was determined in the absence of compounds but in the presence of AMF and GDP.
Background: Alpha assays give light when donor and acceptor beads are brought close together.

Assay [2] has as its target T2, RGS17:Gαo protein:protein interaction (Homo sapiens, UniProt Q9UGC6).
T2 construct: This is the same RGS17 construct used in the high throughput screening campaign that is fully active despite the N-terminal truncation; made in house; host or cells: BL21 (DE3) E. coli for Gαo
T2 sequence (Q9UGC6 84-200 limits assumed): T1 sequence (Q9UGC6 84-200 limits assumed)
As to the kind of experiment: Compound reversibility, washed/unwashed AlphaScreen. Conditions: RGS17 incubated with 100 μM, washed three times. In kind it is binding. As for the experimental part:
To determine the reversibility of compound inhibition of the RGS17:Gαo protein:protein interaction, RGS17 was treated with 100 μM compound. This concentration was determined through the earlier dose-response experiments to inhibit the AlphaScreen assay >25% for each of the compounds (UI-5, UI-1590, UI-1907 and UI-1956). Upon completion of incubation with compounds, each sample was washed three times with ASB buffer. This method will promote dissociation of any compounds that are non-covalent where as any covalent modifiers would result in persistent protein:protein interaction inhibition.
First, stock solutions of all four compounds were made at a 3× concentration or 300 μM for a final concentration of 100 μM. The final DMSO concentration in the assay was 1%. Next, RGS17 and Gαo were diluted into 300 μL of assay buffer (AlphaScreen Buffer: ASB) (50 mM HEPES, 100 mM NaCl, 0.1% Lubrol, 1% bovine serum albumin [BSA], pH 8.0) at a 3× concentration of 30 nM. Next, 7.2 μL of AlphaScreen beads were added to each separate protein. The protein and bead solution was incubated on ice for 30 mins in the dark. Upon completion of protein:bead conjugation, 600 μL of ASB was added to RGS17. To the Gαo sample, 279 μL of AMF (final concentration of 10 μM NaF, […], 10 nM AlCl3, and 5 μM GDP) and 321 μL of ASB were added. The RGS17 sample was split into 90 μL tubes and 90 μL of each compound or DMSO vehicle was added to the RGS17:bead mixture and incubated for 15 mins. Upon completion of compound incubation, the RGS17:bead mixture was washed 3 times with 1.8 mL of ASB. The RGS17 protein:bead samples were pelleted after each wash through centrifugation at 15, 000×g for 10 mins. After the final wash step, the RGS17 protein:bead pellet was resuspended in 180 μL of ASB. Next, to a 384 white plate, 30 μL of the RGS17 protein:bead: compound samples either washed or unwashed were added to each well in triplicate. Finally, 15 μL of the Gαo protein:bead sample was added to each well. The plate was incubated at room temperature, in the dark, for 1.25 hours and read on a Synergy2 plate reader (Biotek, Wisnooski, Vt.) with a sensitivity setting of 200, excitation at 680 nm, and emission read at 570 nm. All data was analyzed with Graphpad Prism 6.0. All data was compared to DMSO controls and corrected for possible bead loss due to washing steps.

The target in assay [3] is RGS4 (Homo sapiens, UniProt P49798). As to the kind of experiment: Selectivity versus RGS4. In kind it is biochemical. As for the experimental part: Characterization of UI-5, UI-1590 and UI-1956 to determine mechanism of action focused initially on the determination of the potential irreversible modification of the RGS protein by the compounds. […] These compounds were tested for selectivity versus RGS4 which was chosen as a model protein due to its high level of sensitivity to thiol modification (18).

Like-named read-outs stand apart in the source and are kept apart here.

Chain of RGS4 (P49798 whole entry, species assumed): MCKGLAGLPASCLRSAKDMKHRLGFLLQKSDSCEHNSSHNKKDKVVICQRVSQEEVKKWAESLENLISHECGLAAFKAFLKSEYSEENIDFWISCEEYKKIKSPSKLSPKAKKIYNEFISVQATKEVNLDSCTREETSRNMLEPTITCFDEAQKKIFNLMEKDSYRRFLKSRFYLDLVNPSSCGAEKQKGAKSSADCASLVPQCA

For the compound `CC(C)=CCC[C@]1(C)C=Cc2c(O)c3c(c(CC=C(C)C)c2O1)O[C@]12C(=C[C@@H]4C[C@H]1C(C)(C)O[C@@]2(C/C=C(/C)C(=O)O)C4=O)C3=O` [UI-1907], in assay [1], the “inhibition of the interaction of RGS17 with Gαo” value (“inhibition … with Gαo” below) is given as “dose dependent manner” and the inhibition (commonly the drop in the measured response relative to a control, in per cent) at 100 µM was more than 25%. In assay [2], the “reversibility of inhibition after washing” value (from here on “reversibility of inhibition”) was “reversible”.
Regarding `O=c1c(-c2cc(O)c(O)c(O)c2)coc2cc(O)c(O)c(O)c12` [UI-1956, 5,6,7-trihydroxy-3-(3,4,5-trihydroxyphenyl)-4H-chromen-4-one], the inhibition at 100 µM in assay [1] (100 μM compound, from dose-response experiments) was more than 25%. Moreover, the “inhibition … with Gαo” value in assay [1] is given as “dose dependent manner”. Besides, the “selectivity RGS17 versus RGS4” value in assay [3] is listed as “selective for RGS17”. The “reversibility of inhibition” value in assay [2] is given as “reversible”.
Consider `CC1=C(O)C(=O)C=C2C1=CC=C1[C@@]2(C)CC[C@@]2(C)[C@@H]3C[C@](C)(C(=O)O)CC[C@]3(C)CC[C@]12C` [UI-1590], for which, in assay [1], the “inhibition … with Gαo” value was “dose dependent manner” and the inhibition at 100 µM was more than 25%. Moreover, in assay [3], the “inhibition of RGS4” value was “inhibited both RGS-4 and RGS-17”; the “selectivity RGS17 versus RGS4” value is on record as “more selective for RGS17”. In addition, the “reversibility of inhibition” value in assay [2] was “reversible”.
Turning to `C[n+]1cc2c3c(ccc2c2ccc4cc5c(cc4c21)OCO5)OCO3` [UI-5], in assay [1], the “inhibition … with Gαo” value is given as “dose dependent manner” and the inhibition at 100 µM was more than 25%. In assay [3], the “inhibition of RGS4” value is “inhibited both RGS-4 and RGS-17”; the “selectivity RGS17 versus RGS4” value was “more selective for RGS17”. In assay [2], the “reversibility of inhibition” value is given as “reversible”.
